Results on 16 compounds are retold here after patent US8729061B2, “Pyrrolidine derivatives” (Hoffmann-La Roche Inc., priority 2011, dated 2014).

The IC50 is the concentration that gives 50% inhibition. Low readings indicate inhibition by little substance, high ones a need for much substance.

Holding throughout (assay type): biochemical
In one assay the target is human Cathepsin S (Homo sapiens (Human), UniProt P25774). Put plainly: Cathepsin enzyme inhibition assay (fluorogenic peptide substrate), Cat S. To be noted: enzyme 1 nM, substrate Z-Val-Val-Arg-AMC 20 μM, pH 6.5. The procedure, abridged: (§1)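 Fluorogenic cleavage assay run separately on human and mouse enzymes, each at 1 nM, in 100 mM potassium phosphate pH 6.5 with 5 mM EDTA, 5 mM DTT and 0.001% Triton X-100. Reaction started with 20 μM Z-Val-Val-Arg-AMC, or Z-Leu-Arg-AMC for Cat K; AMC read at ex 360/em 465 nm. IC50 calculated by standard methods.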

The target of another assay is human Cat L (Homo sapiens (Human), UniProt P07711). The experiment in a line: Cathepsin enzyme inhibition assay (fluorogenic peptide substrate), Cat L. The settings on record: enzyme 1 nM, substrate Z-Val-Val-Arg-AMC 20 μM, pH 6.5. The procedure, abridged:
as §1

The target of a further assay is human Cat K (Homo sapiens (Human), UniProt P43235). Put plainly: Cathepsin enzyme inhibition assay (fluorogenic peptide substrate), Cat K. To be noted: enzyme 1 nM, substrate Z-Leu-Arg-AMC 20 μM, pH 6.5. The gist of the method:
as §1

The target of the next assay is human Cat B (Homo sapiens (Human), UniProt P07858). Put plainly: Cathepsin enzyme inhibition assay (fluorogenic peptide substrate), Cat B. The settings on record: enzyme 1 nM, substrate Z-Val-Val-Arg-AMC 20 μM, pH 6.5. The procedure, abridged:
as §1

Sequence of human Cat K (P43235 115-329): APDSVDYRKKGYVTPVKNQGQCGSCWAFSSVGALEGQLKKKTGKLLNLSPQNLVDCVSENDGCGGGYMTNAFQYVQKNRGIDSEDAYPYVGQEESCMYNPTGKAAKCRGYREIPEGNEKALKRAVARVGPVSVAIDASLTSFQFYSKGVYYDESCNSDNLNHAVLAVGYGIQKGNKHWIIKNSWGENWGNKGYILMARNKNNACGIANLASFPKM
Sequence of human Cat L (P07711 114-333): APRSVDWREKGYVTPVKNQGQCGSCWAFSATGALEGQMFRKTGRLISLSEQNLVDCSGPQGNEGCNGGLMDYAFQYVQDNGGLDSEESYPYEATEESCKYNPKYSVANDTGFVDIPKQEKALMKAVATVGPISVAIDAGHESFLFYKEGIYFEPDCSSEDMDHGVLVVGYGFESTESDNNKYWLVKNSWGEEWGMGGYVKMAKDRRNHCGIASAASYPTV
Sequence of human Cathepsin S (P25774 115-331): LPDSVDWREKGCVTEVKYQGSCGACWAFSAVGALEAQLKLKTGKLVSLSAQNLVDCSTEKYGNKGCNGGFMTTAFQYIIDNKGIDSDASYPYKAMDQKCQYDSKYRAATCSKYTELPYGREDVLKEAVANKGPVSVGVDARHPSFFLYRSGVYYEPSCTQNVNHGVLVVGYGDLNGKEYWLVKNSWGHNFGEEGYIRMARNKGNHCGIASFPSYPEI

Consider `CCC[C@H](NC(=O)[C@@H]1C[C@@H](S(=O)(=O)c2ccc(O[C@@H](C)C(F)(F)F)cc2Cl)CN1C(=O)C1(c2ccc(Cl)cc2)CC1)C(=O)C(=O)NC1CC1` [Example 46, (2S,4R)-4-(2-chloro-4-((S)-1,1,1-trifluoropropan-2-yloxy)phenylsulfonyl)-1-(1-(4-chlorophenyl)cyclopropanecarbonyl)-N—((S)-1-(cyclopropylamino)-1,2-dioxohexan-3-yl)pyrrolidine-2-carboxamide], for which the IC50 at human Cathepsin S is 0.00598 µM; against human Cat L it was 0.0671 µM; against human Cat K it was 0.251 µM; at human Cat B it was 0.224 µM.
Regarding `CCC[C@H](NC(=O)[C@@H]1C[C@@H](S(=O)(=O)c2ccccc2Cl)CN1C(=O)C1(c2ccc(Cl)cc2)CC1)C(=O)C(=O)N(C)C1CC1` [Example 47, (2S,4R)-1-(1-(4-chlorophenyl)cyclopropanecarbonyl)-4-(2-chlorophenylsulfonyl)-N—((S)-1-(cyclopropyl(methyl)amino)-1,2-dioxohexan-3-yl)pyrrolidine-2-carboxamide], the IC50 on human Cathepsin S came out at 0.0223 µM; on human Cat L, 0.283 µM; against human Cat K, 0.998 µM; against human Cat B it was 1.54 µM.
Consider `CCC[C@H](NC(=O)[C@@H]1C[C@@H](S(=O)(=O)c2ccc(F)cc2Cl)CN1C(=O)C1(c2ccc(Cl)cc2)CC1)C(=O)C(=O)NC1CC1` [Example 48, (2S,4R)-4-(2-chloro-4-fluorophenylsulfonyl)-1-(1-(4-chlorophenyl)cyclopropanecarbonyl)-N—((S)-1-(cyclopropylamino)-1,2-dioxohexan-3-yl)pyrrolidine-2-carboxamide], for which the IC50 was 0.000527 µM on human Cathepsin S, 0.0094 µM on human Cat L, 0.035 µM against human Cat K and 0.0832 µM against human Cat B.
On to `CC[C@H](NC(=O)[C@@H]1C[C@@H](S(=O)(=O)c2ccccc2Cl)CN1C(=O)C1(c2ccc(Cl)cc2)CC1)C(=O)C(=O)NCCc1ccccc1` [Example 49, (2S,4R)-1-(1-(4-chlorophenyl)cyclopropanecarbonyl)-4-(2-chlorophenylsulfonyl)-N—((S)-1,2-dioxo-1-(phenethylamino)pentan-3-yl)pyrrolidine-2-carboxamide], for which the IC50 against human Cathepsin S was 0.000901 µM; against human Cat L, 0.002 µM; on human Cat K it was 0.0344 µM; on human Cat B, 0.0302 µM.
For `CC[C@H](NC(=O)[C@@H]1C[C@@H](S(=O)(=O)c2ccccc2Cl)CN1C(=O)C1(c2ccc(Cl)cc2)CC1)C(=O)C(=O)NCCc1cccc2ccccc12` [Example 50, (2S,4R)-1-(1-(4-chlorophenyl)cyclopropanecarbonyl)-4-(2-chlorophenylsulfonyl)-N—((S)-1-(2-(naphthalen-1-yl)ethylamino)-1,2-dioxopentan-3-yl)pyrrolidine-2-carboxamide], the IC50 turned out to be 0.00276 µM against human Cathepsin S, 0.0086 µM on human Cat L, 0.119 µM against human Cat K and 0.0688 µM at human Cat B.
For `CC[C@H](NC(=O)[C@@H]1C[C@@H](S(=O)(=O)c2ccccc2Cl)CN1C(=O)C1(c2ccc(Cl)cc2)CC1)C(=O)C(=O)NCCc1ccc2ccccc2c1` [Example 51, (2S,4R)-1-(1-(4-chlorophenyl)cyclopropanecarbonyl)-4-(2-chlorophenylsulfonyl)-N—((S)-1-(2-(naphthalen-2-yl)ethylamino)-1,2-dioxopentan-3-yl)pyrrolidine-2-carboxamide], the IC50 on human Cathepsin S stood at 0.00308 µM; against human Cat L, 0.013 µM; against human Cat K, 0.159 µM; on human Cat B, 0.172 µM.
The like results for `CC[C@H](NC(=O)[C@@H]1C[C@@H](S(=O)(=O)c2ccccc2Cl)CN1C(=O)C1(c2ccc(Cl)cc2)CC1)C(=O)C(=O)NCc1cccc2ccccc12` [Example 52, (2S,4R)-1-(1-(4-chlorophenyl)cyclopropanecarbonyl)-4-(2-chlorophenylsulfonyl)-N—((S)-1-(naphthalen-1-ylmethylamino)-1,2-dioxopentan-3-yl)pyrrolidine-2-carboxamide] were, in that order, 0.00196 µM, 0.0094 µM, 0.317 µM and 0.386 µM.
Consider `CC[C@H](NC(=O)[C@@H]1C[C@@H](S(=O)(=O)c2ccccc2Cl)CN1C(=O)C1(c2ccc(Cl)cc2)CC1)C(=O)C(=O)NC1CCOCC1` [Example 53, (2S,4R)-1-(1-(4-chlorophenyl)cyclopropanecarbonyl)-4-(2-chlorophenylsulfonyl)-N—((S)-1,2-dioxo-1-(tetrahydro-2H-pyran-4-ylamino)pentan-3-yl)pyrrolidine-2-carboxamide], for which the IC50 at human Cathepsin S came to 0.000676 µM; at human Cat L it was 0.0017 µM; against human Cat K it was 0.0393 µM; at human Cat B, 0.188 µM.
For `CC[C@H](NC(=O)[C@@H]1C[C@@H](S(=O)(=O)c2ccccc2Cl)CN1C(=O)C1(c2ccc(Cl)cc2)CC1)C(=O)C(=O)NCCOC` [Example 54, (2S,4R)-1-(1-(4-chlorophenyl)cyclopropanecarbonyl)-4-(2-chlorophenylsulfonyl)-N—((S)-1-(2-methoxyethylamino)-1,2-dioxopentan-3-yl)pyrrolidine-2-carboxamide], the IC50 is 0.00063 µM against human Cathepsin S, 0.0026 µM on human Cat L, 0.082 µM against human Cat K and 0.0854 µM against human Cat B.
Turning to `CC[C@H](NC(=O)[C@@H]1C[C@@H](S(=O)(=O)c2ccccc2Cl)CN1C(=O)C1(c2ccc(Cl)cc2)CC1)C(=O)C(=O)NCC(C)C` [Example 55, (2S,4R)-1-(1-(4-chlorophenyl)cyclopropanecarbonyl)-4-(2-chlorophenylsulfonyl)-N—((S)-1-(isobutylamino)-1,2-dioxopentan-3-yl)pyrrolidine-2-carboxamide], the 50% inhibitory concentration (IC50) on human Cathepsin S came to 0.000876 µM; against human Cat L, 0.0026 µM; at human Cat K it was 0.0565 µM; on human Cat B, 0.0616 µM.
Turning to `CC[C@H](NC(=O)[C@@H]1C[C@@H](S(=O)(=O)c2ccc(N3CCOCC3)cc2Cl)CN1C(=O)C1(c2ccc(Cl)cc2)CC1)C(=O)C(=O)NC1CC1` [Example 56, (2S,4R)-4-(2-chloro-4-morpholinophenylsulfonyl)-1-(1-(4-chlorophenyl)cyclopropanecarbonyl)-N—((S)-1-(cyclopropylamino)-1,2-dioxopentan-3-yl)pyrrolidine-2-carboxamide], the IC50 stood at 0.00257 µM against human Cathepsin S, 0.0206 µM at human Cat L, 0.0654 µM against human Cat K and 0.101 µM against human Cat B.
Taken in the same sequence, the figures for `CCC[C@H](NC(=O)[C@@H]1C[C@@H](S(=O)(=O)c2ccc(N3CCOCC3)cc2Cl)CN1C(=O)C1(c2ccc(Cl)cc2)CC1)C(=O)C(=O)NC1CC1` [Example 57, (2S,4R)-4-(2-chloro-4-morpholinophenylsulfonyl)-1-(1-(4-chlorophenyl)cyclopropanecarbonyl)-N—((S)-1-(cyclopropylamino)-1,2-dioxohexan-3-yl)pyrrolidine-2-carboxamide] were 0.00333 µM, 0.0249 µM, 0.075 µM and 0.0932 µM.
Turning to `CC(C)C[C@H](NC(=O)[C@@H]1C[C@@H](S(=O)(=O)c2ccccc2Cl)CN1C(=O)C1(c2ncc(Cl)cc2F)CC1)C(=O)C(=O)NC1CC1` [Example 59, (2S,4R)-1-(1-(5-chloro-3-fluoropyridin-2-yl)cyclopropanecarbonyl)-4-(2-chlorophenylsulfonyl)-N—((S)-1-(cyclopropylamino)-5-methyl-1,2-dioxohexan-3-yl)pyrrolidine-2-carboxamide], the IC50 on human Cathepsin S stood at 0.00261 µM; against human Cat L, 0.0064 µM; on human Cat K, 0.141 µM; against human Cat B, 0.518 µM.
As for `CCCCNC(=O)C(=O)[C@H](CC)NC(=O)[C@@H]1C[C@@H](S(=O)(=O)c2ccccc2Cl)CN1C(=O)C1(c2ncc(Cl)cc2F)CC1` [Example 60, (2S,4R)—N—((S)-1-(butylamino)-1,2-dioxopentan-3-yl)-1-(1-(5-chloro-3-fluoropyridin-2-yl)cyclopropanecarbonyl)-4-(2-chlorophenylsulfonyl)pyrrolidine-2-carboxamide], the IC50 turned out to be 0.00287 µM at human Cathepsin S, 0.0061 µM at human Cat L, 0.144 µM on human Cat K and 0.354 µM against human Cat B.
Consider `CCCCNC(=O)C(=O)[C@H](CCC)NC(=O)[C@@H]1C[C@@H](S(=O)(=O)c2ccccc2Cl)CN1C(=O)C1(c2ncc(Cl)cc2F)CC1` [Example 61, (2S,4R)—N—((S)-1-(butylamino)-1,2-dioxohexan-3-yl)-1-(1-(5-chloro-3-fluoropyridin-2-yl)cyclopropanecarbonyl)-4-(2-chlorophenylsulfonyl)pyrrolidine-2-carboxamide], for which the IC50 turned out to be 0.00293 µM on human Cathepsin S, 0.0062 µM at human Cat L, 0.106 µM on human Cat K and 0.172 µM against human Cat B.
In the case of `CCC[C@H](NC(=O)[C@@H]1C[C@@H](S(=O)(=O)c2ccccc2Cl)CN1C(=O)C1(c2ncc(Cl)cc2F)CC1)C(=O)C(=O)NCc1ccccc1` [Example 62, (2S,4R)—N—((S)-1-(benzylamino)-1,2-dioxohexan-3-yl)-1-(1-(5-chloro-3-fluoropyridin-2-yl)cyclopropanecarbonyl)-4-(2-chlorophenylsulfonyl)pyrrolidine-2-carboxamide], the IC50 came out at 0.00235 µM on human Cathepsin S, 0.006 µM on human Cat L, 0.0412 µM on human Cat K and 0.12 µM at human Cat B.
